Test results reported in US9107411B2, “Indolecarboxamides and benzimidazolecarboxamides as insecticides and acaricides” (BAYER INTELLECTUAL PROPERTY GMBH, priority 2011, dated 2015).
Where two headings read alike, the source gives them in different places.

Experiments:
Myzus persicae = test: Myzus test (MYZUPE spray treatment); format: in vivo; details: Chinese cabbage leaf discs, after 6 days
Protocol: Myzus Test (MYZUPE Spray Treatment) Solvent: 78 parts by weight of acetone • • 1.5 parts by weight of dimethylformamide Emulsifier: 0.5 part by weight of alkylaryl polyglycol ether To produce an appropriate active ingredient formulation, 1 part by weight of active ingredient is mixed with the stated amounts of solvent and emulsifier, and the concentrate is diluted with emulsifier-containing water to the desired concentration. Leaf discs of Chinese cabbage (Brassica pekinensis) infested by all stages of the green peach aphid (Myzus persicae) are sprayed with an active ingredient formulation of the desired concentration. After 6 days, the efficacy in % is determined. 100% means that all of the aphids have been killed; 0% means that none of the aphids have been killed.

Tetranychus urticae = test: Tetranychus test, OP-resistant (TETRUR spray treatment); format: in vivo; details: bean leaf discs, after 6 days
In short: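 Bean leaf discs infested with all stages of OP-resistant T. urticae sprayed with compound formulated in acetone/DMF plus alkylaryl polyglycol ether emulsifier, diluted in water. Efficacy (% mites killed) scored after 6 days.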

Spodoptera frugiperda = Spodoptera frugiperda test (SPODFR spray treatment); format: in vivo; details: maize leaf discs, after 7 days
In short: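 Mortality read-out at 7 days, given as % efficacy, where 100% means every caterpillar dead and 0% none. Caterpillars were placed on dried maize leaf discs that had been sprayed with test formulation. That formulation was an acetone/dimethylformamide concentrate diluted in emulsifier-containing water.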

Phaedon cochleariae = test: Phaedon test (PHAECO spray treatment); format: in vivo; details: Chinese cabbage leaf discs, after 7 days
In short: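 Larval mortality was assessed 7 days after Phaedon cochleariae larvae were placed on dried, spray-treated Brassica pekinensis leaf discs. The formulation was an acetone/dimethylformamide concentrate with alkylaryl polyglycol ether emulsifier, diluted in emulsifier-containing water. Results are given as % kill, from 0 (no larvae dead) to 100 (all dead).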

logP (HPLC-MS) = format: physicochemical
Boophilus microplus = Boophilus microplus test (BOOPMI injection); format: in vivo; details: application rate 20 μg/animal; injected into the abdomen; after 7 days
In short: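 Read-out after 7 days is % efficacy, judged by fertile egg laying, with 100% meaning no fertile eggs from any tick. Compound was given by abdominal injection as a DMSO solution diluted to the desired concentration. Treated ticks were held in dishes in a climate-controlled room.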

Lucilia cuprina larvae = test: Lucilia cuprina test (LUCICU); format: in vivo; details: application rate 100 ppm; treated horse meat; after 2 days
In short: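 Mortality scored as percent of larvae killed 2 days after exposure. Horse meat was treated with the compound, formulated from DMSO stock diluted with water to the test concentration, and populated with roughly 20 larvae.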

Ctenocephalides felis = Ctenocephalides felis oral (CTECFE); format: in vivo; details: application rate 100 ppm in citrated cattle blood; after 2 days
In short: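 Readout is percent mortality after 2 days (0–100%) in roughly 20 unfed adult fleas. The fleas had imbibed citrated cattle blood dosed with compound through Parafilm, with the compound diluted from a DMSO concentrate.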

adult Musca domestica = test: Musca domestica test (MUSCDO); format: in vivo; details: application rate 100 ppm; treated sponge; after 2 days
In short: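 After 2 days' exposure to a treated sponge, adult house fly mortality was recorded as kill %. Formulation: active ingredient in dimethyl sulphoxide, then water dilution to the test concentration.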

[1] = HPLC, reversed-phase column (C18), 43° C., acidic range pH 2.7, EEC directive 79/831 Annex V.A8, two values = both regioisomers (G = N)
[2] = HPLC, reversed-phase column (C18), acidic range pH 2.7, acetonitrile (0.1% formic acid)/water gradient, 43° C., calibration with unbranched alkan-2-ones

log p (logP (HPLC-MS); [1])	log p (logP (HPLC-MS); [2])	Compound	efficacy in % (Myzus persicae; application rate 500 g/ha) [%]	efficacy in % (Spodoptera frugiperda; application rate 500 g/ha) [%]	efficacy in % (Tetranychus urticae; application rate 100 g/ha) [%]	efficacy in % (Spodoptera frugiperda; application rate 100 g/ha) [%]	efficacy in % (Phaedon cochleariae; application rate 100 g/ha) [%]	efficacy in % (Myzus persicae; application rate 100 g/ha) [%]	further results
		N#CCn1c(C(=O)NC(c2ccc(F)c(C(F)(F)F)c2)C(F)(F)F)nc2cc(C(=O)NC3CC3)c(Cl)cc21 (centres unmarked) [Compound 301]	90	100					efficacy in % (Tetranychus urticae; application rate 500 g/ha): 90%; efficacy in % (Phaedon cochleariae; application rate 500 g/ha): 100%
4.43		CCn1c(C(=O)NC(c2cc(Cl)c(Cl)c(Cl)c2)C(F)(F)F)cc2cc(C(=O)NC3(C#N)CC3)c(C)cc21 (centres unmarked) [Compound 289]	100		100	100	100		
4.13		CCn1c(C(=O)NC(c2cc(Cl)c(F)c(Cl)c2)C(F)(F)F)cc2cc(C(=O)NC3(C#N)CC3)c(C)cc21 (centres unmarked) [Compound 290]	100		100	100	100		
4.07		CCn1c(C(=O)NC(c2cc(Cl)cc(Cl)c2)C(F)(F)F)cc2cc(C(=O)NC3(C#N)CC3)c(C)cc21 (centres unmarked) [Compound 291]			100	100	100	90	
3.43		O=C(NC1CC1)c1cc2nc(C(=O)NC(c3cccc(Br)c3)C(F)(F)F)n(C3CC3)c2cc1Cl (centres unmarked) [Compound 314]			90	100	100	90	
3.59		O=C(NC1CC1)c1cc2nc(C(=O)NC(c3ccc(F)c(C(F)(F)F)c3)C(F)(F)F)n(C3CC3)c2cc1Br (centres unmarked) [Compound 300]		100				100	efficacy in % (Tetranychus urticae; application rate 500 g/ha): 100%; efficacy in % (Phaedon cochleariae; application rate 500 g/ha): 100%
4.06		CCn1c(C(=O)NC(c2ccc(Cl)c(Cl)c2)C(F)(F)F)cc2cc(C(=O)NC3(C#N)CC3)c(Cl)cc21 (centres unmarked) [Compound 316]			100	100	100	90	
	3.50	C#CCn1c(C(=O)NC(c2ccc(F)c(Cl)c2)C(F)(F)F)nc2cc(C(=O)NC3CC3)c(Cl)cc21 (centres unmarked) [Compound 101]			80	100	100	80	
	3.45	C#CCn1c(C(=O)NC(c2cccc(Cl)c2)C(F)(F)F)cc2cc(C(=O)NC3CC3)c(Cl)cc21 (centres unmarked) [Compound 5]	90	100					efficacy in % (Tetranychus urticae; application rate 500 g/ha): 100%; efficacy in % (Phaedon cochleariae; application rate 500 g/ha): 100%
	3.75	CCn1c(C(=O)NC(c2cccc(C(F)(F)F)c2)C(F)(F)F)cc2cc(C(=O)NC3(C#N)CC3)c(C)cc21 (centres unmarked) [Compound 183]			100	100	100	90	
3.40		CCn1c(C(=O)NC(c2ccc(F)c(F)c2)C(F)(F)F)cc2cc(C(=O)NC3CC3)c(C)cc21 (centres unmarked) [Compound 295]			100	100	100	90	
		O=C(NC1CC1)c1cc2nc(C(=O)NC(c3cccc(C(F)(F)F)c3)C(F)(F)F)n(C3CC3)c2cc1Cl (centres unmarked) [Compound 312, 6-chloro-N^5,1-dicyclopropyl-N^2-{2,2,2-trifluoro-1-[3-(trifluoromethyl)phenyl]ethyl}-1H-benzimidazole-2,5-dicarboxamide]	100	100				100	chromatographic logP (logP (HPLC-MS); HPLC, reversed-phase column (C18), 43° C., acidic range pH 2.7, EEC directive 79/831 Annex V.A8, two values = both regioisomers (G = N), read-out: log p): 3.48; chromatographic logP (logP (HPLC-MS); HPLC-MS): 3.48; pest or weed control at 500 g/ha (Phaedon cochleariae; Phaedon cochleariae, foliar, 168 h, application rate 500 g/ha, read-out: efficacy in %): 100%
	3.71	CCn1c(C(=O)NC(c2cccc(Br)c2)C(F)(F)F)cc2cc(C(=O)NC3CC3)c(Cl)cc21 (centres unmarked) [Compound 40]			100	100	100	90	efficacy (laying of fertile eggs) (Boophilus microplus): 100%; efficacy (kill in %) (Lucilia cuprina larvae): 100%; efficacy (kill in %) (Ctenocephalides felis): 100%
3.47		CCn1c(C(=O)NC(c2ccc(F)c(F)c2)C(F)(F)F)cc2cc(C(=O)NC3(C#N)CC3)c(Cl)cc21 (centres unmarked) [Compound 315]			100	100	100	90	
	3.48	C#CCn1c(C(=O)NC(c2cccc(C(F)(F)F)c2)C(F)(F)F)cc2cc(C(=O)NC3(C#N)CC3)c(C)cc21 (centres unmarked) [Compound 209]			100	100	100	90	
3.38		O=C(NC1CC1)c1cc2nc(C(=O)NC(c3ccc(F)c(C(F)(F)F)c3)C(F)(F)F)n(C3CC3)c2cc1Cl (centres unmarked) [Compound 313]	90	100					efficacy in % (Tetranychus urticae; application rate 500 g/ha): 90%; efficacy in % (Phaedon cochleariae; application rate 500 g/ha): 100%
4.19		CCn1c(C(=O)NC(c2cc(Cl)c(F)c(Cl)c2)C(F)(F)F)cc2cc(C(=O)NC3(C#N)CC3)c(Cl)cc21 (centres unmarked) [Compound 311]			100	100	100	90	
3.74		C=CCn1c(C(=O)NC(c2cccc(C(F)(F)F)c2)C(F)(F)F)cc2cc(C(=O)NC3(C#N)CC3)c(Cl)cc21 (centres unmarked) [Compound 283]			100	100	100		efficacy (laying of fertile eggs) (Boophilus microplus): 100%; efficacy (kill in %) (Lucilia cuprina larvae): 100%; efficacy (kill in %) (adult Musca domestica): 90%; efficacy (kill in %) (Ctenocephalides felis): 100%
4.75		C=CCN(C(=O)c1cc2nc(C(=O)NC(c3ccc(F)c(Cl)c3)C(F)(F)F)n(CC=C)c2cc1Cl)C1CC1 (centres unmarked) [Compound 303]		100				90	efficacy in % (Tetranychus urticae; application rate 500 g/ha): 100%; efficacy in % (Phaedon cochleariae; application rate 500 g/ha): 100%
3.79		C=CCn1c(C(=O)NC(c2ccc(F)c(C(F)(F)F)c2)C(F)(F)F)nc2cc(C(=O)NC3CC3)c(Cl)cc21 (centres unmarked) [Compound 281]	90	100				100	efficacy in % (Tetranychus urticae; application rate 500 g/ha): 100%; efficacy in % (Phaedon cochleariae; application rate 500 g/ha): 100%
	3.88	CCn1c(C(=O)NC(c2ccc(F)c(C(F)(F)F)c2)C(F)(F)F)cc2cc(C(=O)NC3(C#N)CC3)c(Cl)cc21 (centres unmarked) [Compound 16]			100	100	100		efficacy (laying of fertile eggs) (Boophilus microplus): 100%; efficacy (kill in %) (Lucilia cuprina larvae): 100%; efficacy (kill in %) (adult Musca domestica): 100%; efficacy (kill in %) (Ctenocephalides felis): 100%
	3.66	CCn1c(C(=O)NC(c2ccc(F)c(Cl)c2)C(F)(F)F)cc2cc(C(=O)NC3(C#N)CC3)c(C)cc21 (centres unmarked) [Compound 193]			100	100	100	90	
	3.70	Cn1c(C(=O)NC(c2ccc(F)c(C(F)(F)F)c2)C(F)(F)F)cc2cc(C(=O)NC3CC3)c(Cl)cc21 (centres unmarked) [Compound 49]			100	100	100		efficacy (laying of fertile eggs) (Boophilus microplus): 100%; efficacy (kill in %) (Lucilia cuprina larvae): 100%; efficacy (kill in %) (adult Musca domestica): 100%; efficacy (kill in %) (Ctenocephalides felis): 98%
